US20220168299A1, “PHARMACEUTICAL COMPOSITION COMPRISING TBN, OR SALT OR HYDRATE THEREOF, AND PREPARATION METHOD THEREOF” (GUANGZHOU MAGPIE PHARMACEUTICALS CO., LTD., priority 2019, published 2022)
Where “and” joins values, the source holds several entries; their conditions need not be identical. Equal entries are not always repeated. Where two headings read alike, the source gives them in different places.

Columns and labels:
[1] = Pharmacokinetic study of TBN enteric-coated tablets (Example 25 method) and intravenous TBN in beagle dogs; type: in vivo
Experimental: (11) Pharmacokinetic study of TBN enteric-coated tablets prepared following the method described in Example 25
24 beagle dogs (male:female 1:1) were randomly divided into 4 groups (each group having 3 female and 3 male animals). Animals in group A were injected intravenously with a TBN (API) solution at a dosage of 6 mg·kg^−1, and animals in groups B and D were respectively given with TBN enteric-coated tablets at a dosage of 100 and 900 mg·animal^−1 by oral gavage. Blood was taken from the animals in group A before and 0.083, 0.25, 0.5, 1, 2, 4, 6, 8 and 24 h after administration; and blood was taken from the animals in group B and D before and 0.25, 0.5, 1, 2, 4, 6, 8, 12 and 24 h after administration. Animals in group C were given TBN enteric-coated tablets at a dosage of 300 mg·animal^−1 for seven consecutive days. Blood was taken from the animals in group C before and 0.25, 0.5, 1, 2, 4, 6, 8, 12 and 24 h after the first and seventh administration and before and 2 h after the second to sixth administration.
Detection and analysis by LC-MS/MS were performed and the pharmacokinetic parameters were calculated.

[2] = Bioavailability test: pharmacokinetic study of TBN (API) and enteric-coated tablets in beagle dogs; type: in vivo; settings: 175 mg, oral gavage; for MRT last: read-out: MRT (0-t); for Vd/F: read-out: Vz/F
Experimental: (10) Bioavailability test: Pharmacokinetic study of TBN (API) and enteric-coated tablets in beagle dogs
6 beagle dogs were randomly divided into 2 groups, each group having 3 animals. Each test animal was given with TBN (API) at a dosage of 175 mg, or 1 enteric-coated tablet with a specification of 175 mg prepared following the method in Example 17 by oral gavage. The blood sample was collected at various times (0.08, 0.25, 0.5, 1, 1.5, 2, 4, 8, 12, and 24 h), and analyzed by LC-MS/MS. A drug concentration-time curve was plotted to calculate the pharmacokinetic parameters.

[3] = both sexes, dog, blood, beagle dogs, intravenous 6 mg · kg^−1, Mean
[4] = beagle, dog, blood, po, Average of 3 animals
[5] = beagle, dog, blood, po, individual animal
[6] = individual animal, listed as TBN (API)

SMILES: Cc1nc(C)c(/C=[N+](\[O-])C(C)(C)C)nc1C [TBN, (cis)-2-methyl-N-[(3,5,6-trimethylpyrazin-2-yl)methylene)2-propylamine oxide]
- AUC(0-inf) [1, 3]: 3560 ng·h/mL
- C0 [1, 3]: 12100 ng/mL
- clearance [1, 3]: 29.1 mL/min/kg
- half-life [1, 3]: 17.5 min
- MRT inf ([1]; both sexes, dog, blood, beagle dogs, intravenous 6 mg · kg^−1, Mean, read-out: MRT0-inf): 17.9 min
- Vd ([1]; both sexes, dog, blood, beagle dogs, intravenous 6 mg · kg^−1, Mean, read-out: VDSS): 0.503 L/kg
- difference in exposure levels (C0, AUC0-t) between male and female beagle dogs ([1]; intravenous administration): no significant difference
- AUC(0-inf) [2, 4]: 9580 ng·h/mL
- AUC(0-t) ([2]; beagle, dog, blood, po, Average of 3 animals, read-out: AUC(0-t)): 9580 ng·h/mL
- Cmax ([2]; beagle, dog, blood, po, Average of 3 animals, read-out: Cmax): 10100 ng/mL
- MRT last [2, 4]: 49.8 min
- Vd/F [2, 4]: 1.22 L/kg
- MRT last [2, 5]: 37.2 min
- Vd/F [2, 5]: 1.39 L/kg
- Tmax ([2]; dog, blood, individual animal): 15 min
- CLz/F ([2]; Average of 3 animals): 30.2 mL/min/kg
- T½z ([2]; Average of 3 animals): 31.2 min
- AUC (0-∞) [2, 6]: 5294.6 ng·h/mL and 6935.3 ng·h/mL and 16503.3 ng·h/mL
- AUC(0-t) [2, 6]: 5290.7 ng·h/mL and 6935.2 ng·h/mL and 16503.2 ng·h/mL
- CLz/F [2, 6]: 42.8 mL/min/kg and 33.7 mL/min/kg and 14 mL/min/kg
- Cmax [2, 6]: 7280.25 ng/mL and 7291.11 ng/mL and 15646.14 ng/mL
- MRT (0-t) [2, 6]: 53.4 min and 58.8 min
- T½z [2, 6]: 22.8 min and 29.4 min and 42.6 min
